Assay results: patent publication US20160122320A1, “USEFUL COMBINATIONS OF MONOBACTAM ANTIBIOTICS WITH BETA-LACTAMASE INHIBITORS” (Basilea Pharmaceutica AG, priority 2005, published 2016)
Counter-ions that a name gives are not always drawn.

Tests used:
Test in all cases: MIC, NCCLS broth microdilution
Type in all cases: cell-based
[1] = tested on: Pseudomonas aeruginosa 1973E; settings: for MIC of antibiotic at fixed inhibitor concentration (4 mg/L): MIC of antibiotic compound 1 with the labelled bridged monobactam of formula II and clavulanate, 4 mg/L each
In short: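 Broth microdilution following NCCLS M7-A5, with final DMSO ≤1%. Plates were incubated overnight at 30° C. or 37° C. and growth was read by eye; MIC is the lowest concentration giving complete inhibition of visible growth. In combination tests the formula I compound was serially diluted while partner compounds were held at 4 μg/mL each.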

[2] = tested on: Serratia marcescens S6; settings: for MIC of antibiotic at fixed inhibitor concentration (4 mg/L): MIC of antibiotic compound 1 with the labelled bridged monobactam of formula II and clavulanate, 4 mg/L each
Method: Antimicrobial activity of the compounds and of their combinations was determined against a selection of organisms according to the standard procedures described by the National Committee for Clinical Laboratory Standards (National Committee for Clinical Laboratory. Standards (2000). Methods for Dilution Antimicrobial Susceptibility Tests for Bacteria That Grow Aerobically-Fifth Edition: Approved Standard M7-A5. NCCLS, Wayne, Pa., USA).
In all cases the final concentration of DMSO incubated with the bacteria is less than or equal to 1%. […] Plates were incubated overnight at an appropriate temperature (30° C. or 37° C.) and optical densities assessed by eye. The MIC value is defined as the lowest compound concentration completely inhibiting visible growth of the test organism. When combinations between compounds of formula I with compounds of formula II and are evaluated the compounds of formula I are tested in dilution series as described above while the compounds of formula II and III-XIII were present in all wells at a constant concentration of 4 μg/mL each.

[3] = tested on: Acinetobacter sp. J2; settings: for MIC of antibiotic at fixed inhibitor concentration (4 mg/L): Acinetobacter sp. J2, MIC of antibiotic compound 1 with the labelled bridged monobactam of formula II and clavulanate, 4 mg/L each
[4] = tested on: Pseudomonas aeruginosa MK1184; settings: for MIC of antibiotic at fixed inhibitor concentration (4 mg/L): MIC of antibiotic compound 1 with the labelled bridged monobactam of formula II and clavulanate, 4 mg/L each
[5] = tested on: Enterobacter cloacae P99; settings: for MIC of antibiotic at fixed inhibitor concentration (4 mg/L): MIC of antibiotic compound 1 with the labelled bridged monobactam of formula II and clavulanate, 4 mg/L each
[6] = tested on: Stenotrophomonas malthophilia 1AC736; settings: for MIC of antibiotic at fixed inhibitor concentration (4 mg/L): Stenotrophomonas malthophilia 1AC736, MIC of antibiotic compound 1 with the labelled bridged monobactam of formula II and clavulanate, 4 mg/L each
[7] = tested on: Klebsiella pneumoniae CF104; settings: for MIC of antibiotic at fixed inhibitor concentration (4 mg/L): MIC of antibiotic compound 1 with the labelled bridged monobactam of formula II and clavulanate, 4 mg/L each

`NC(=O)CNC(=O)c1ccc[n+](CC(=O)N2CC[C@@H]3[C@H]2C(=O)N3S(=O)(=O)[O-])c1` [Compound 108, (1S,5R)-2-(2-{3-[N-(carbamoylmethyl)carbamoyl]pyridinium}acetyl)-7-oxo-2,6-diazabicyclo[3.2.0]heptane-6-sulfonate, inner salt] was tested, and the “MIC of antibiotic at fixed inhibitor concentration (4 mg/L)” value [1] was 4 mg/L, the “MIC of antibiotic at fixed inhibitor concentration (4 mg/L)” value [2] was 0.25 mg/L and the “MIC of antibiotic at fixed inhibitor concentration (4 mg/L)” value [3] was greater than 32 mg/L. The “MIC of antibiotic at fixed inhibitor concentration (4 mg/L)” value [4] was greater than 32 mg/L, the “MIC of antibiotic at fixed inhibitor concentration (4 mg/L)” value [5] was 4 mg/L and the “MIC of antibiotic at fixed inhibitor concentration (4 mg/L)” value [6] was 0.125 mg/L. The “MIC of antibiotic at fixed inhibitor concentration (4 mg/L)” value [7] was 1 mg/L.
For `CC1(C)C(NC(=O)C(=NOCc2cc(=O)c(O)cn2O)c2csc(N)n2)C(=O)N1OCC(=O)O` (centres unmarked) [Compound 33], the MIC of antibiotic ([1]; antibiotic alone, no inhibitor) was 32 mg/L, the “MIC of antibiotic at fixed inhibitor concentration of 4 mg/L” value ([1]; with 102 and clavulanate) was 16 mg/L and the “MIC of antibiotic at fixed inhibitor concentration of 4 mg/L” value ([1]; with 324 and clavulanate) was 16 mg/L. For the same molecule, the MIC of antibiotic ([2]; antibiotic alone, no inhibitor) was 0.5 mg/L, the “MIC of antibiotic at fixed inhibitor concentration of 4 mg/L” value ([2]; with 102 and clavulanate) was 0.25 mg/L and the “MIC of antibiotic at fixed inhibitor concentration of 4 mg/L” value ([2]; with 324 and clavulanate) was 0.25 mg/L. For the same molecule, the MIC of antibiotic ([3]; Acinetobacter baumannii J2, antibiotic alone, no inhibitor) was greater than 32 mg/L, the “MIC of antibiotic at fixed inhibitor concentration of 4 mg/L” value ([3]; Acinetobacter baumannii J2, with 102 and clavulanate) was 16 mg/L and the “MIC of antibiotic at fixed inhibitor concentration of 4 mg/L” value ([3]; Acinetobacter baumannii J2, with 324 and clavulanate) was 8 mg/L. For the same molecule, the MIC of antibiotic ([4]; antibiotic alone, no inhibitor) was 32 mg/L, the “MIC of antibiotic at fixed inhibitor concentration of 4 mg/L” value ([4]; with 102 and clavulanate) was 16 mg/L and the “MIC of antibiotic at fixed inhibitor concentration of 4 mg/L” value ([4]; with 324 and clavulanate) was 32 mg/L. The MIC of antibiotic ([5]; antibiotic alone, no inhibitor) was 32 mg/L, the “MIC of antibiotic at fixed inhibitor concentration of 4 mg/L” value ([5]; with 102 and clavulanate) was 4 mg/L and the “MIC of antibiotic at fixed inhibitor concentration of 4 mg/L” value ([5]; with 324 and clavulanate) was 16 mg/L. The MIC of antibiotic ([6]; Stenotrophomonas maltophilia 1AC736, antibiotic alone, no inhibitor) was 2 mg/L, the “MIC of antibiotic at fixed inhibitor concentration of 4 mg/L” value ([6]; Stenotrophomonas maltophilia 1AC736, with 102 and clavulanate) was 2 mg/L and the “MIC of antibiotic at fixed inhibitor concentration of 4 mg/L” value ([6]; Stenotrophomonas maltophilia 1AC736, with 324 and clavulanate) was 2 mg/L. For the same molecule, the MIC of antibiotic ([7]; antibiotic alone, no inhibitor) was 2 mg/L, the “MIC of antibiotic at fixed inhibitor concentration of 4 mg/L” value ([7]; with 102 and clavulanate) was 0.5 mg/L and the “MIC of antibiotic at fixed inhibitor concentration of 4 mg/L” value ([7]; with 324 and clavulanate) was 0.5 mg/L.
With `O=C(Nc1ccc(O)c(O)c1)N1CC[C@@H]2[C@H]1C(=O)N2S(=O)(=O)[O-].[Na+]` [Compound 306, Sodium(1S,5R)-2-[N-(3,4-dihydroxyphenyl)carbamoyl]-7-oxo-2,6-diazabicyclo[3.2.0]heptane-6-sulfonate] the “MIC of antibiotic at fixed inhibitor concentration (4 mg/L)” value [1] was 4 mg/L, the “MIC of antibiotic at fixed inhibitor concentration (4 mg/L)” value [2] was 0.5 mg/L and the “MIC of antibiotic at fixed inhibitor concentration (4 mg/L)” value [3] was greater than 32 mg/L. The “MIC of antibiotic at fixed inhibitor concentration (4 mg/L)” value [4] was greater than 32 mg/L, the “MIC of antibiotic at fixed inhibitor concentration (4 mg/L)” value [5] was 32 mg/L and the “MIC of antibiotic at fixed inhibitor concentration (4 mg/L)” value [6] was 0.25 mg/L. The “MIC of antibiotic at fixed inhibitor concentration (4 mg/L)” value [7] was 2 mg/L.
